Test results published in patent publication US10617695B2, “Ophthalmic compositions containing alcaftadine” (Vistakon Pharmaceuticals, LLC, priority 2006, dated 2020).
Entries after “also recorded” stand apart in the source; their conditions may differ.

What was measured:
[1] = tested on: SWR/J mice sensitized with short ragweed allergen; experiment: Topical alcaftadine in murine model of active anaphylaxis (allergic conjunctivitis, short ragweed challenge); assay type: in vivo, mouse; details: alcaftadine 0.0625% ophthalmic solution, 15 minutes after allergen challenge
Method: Male SWR/J mice (The Jackson Laboratory, Bar Harbor, Me.), aged 5-7 weeks and weighing between 12.55 and 17.73 grams, were sensitized with a 100 μl dose of a suspension of 50 μg short ragweed allergen (Greer Labs, Inc., Lenoir, N.C.) and 1 mg of aluminum hydroxide (Fisher Scientific, Pittsburgh, Pa.) by intraperitoneal injection at two weeks and prior to treatment and challenge. […] The mice were then dosed topically in the eye with an alcaftadine 0.0625% ophthalmic solution, positive control (ophthalmic solution comprising combination of ketotifen 0.05% and pheniramine 0.5%), or placebo prior to an ocular challenge with 1.5 mg short ragweed allergen in phosphate buffered saline. Fifteen (15) minutes after allergen challenge, mice were evaluated for clinical signs of allergic conjunctivitis by scoring for conjunctival redness, chemosis, tearing, and lid edema. Severity of clinical signs was scored by a trained technician using a standardized 0-2 scale.

[2] = Chemical stability of alcaftadine solution in ethylene oxide sterilized LDPE bottles; assay type: physicochemical
Method: Both non-sterilized Rexam and Bunder Glas bottles were sterilized using ethylene oxide. Stability studies were initiated and ethylene oxide levels determined to be <1 ppm (under ambient conditions) using a water extraction test method (ANSI/AAMI/ISO: 10993-7) by AppTec (Marietta, Ga.).
The 2.5 mg/ml alcaftadine solution was used in this study.
The chemical stability results for alcaftadine stored in ethylene oxide sterilized Rexam and Bunder Glas bottles are summarized in Table 4.

E-cadherin = experiment: Integrity of conjunctival epithelium after conjunctival allergen challenge: E-cadherin expression (confocal microscopy); assay type: in vivo, mice
Method: To investigate the ability of alcaftadine to maintain the integrity of conjunctival epithelium, changes in the expression of the tight junction proteins ZO-1 and E-cadherin (an induction for E-cadherin and qualitative change-from focal to diffuse for ZO-1) were evaluated following specific conjunctival allergen challenge. These changes are associated with an increased permeability of the conjunctival and other epithelial tissues. This in vivo experiment examined what effect alcaftadine (topical administration 1 and 2 hours pre-challenge) had on the modulation of these proteins.
Mice were sensitized with short ragweed (SRW) in aluminum hydroxide via intraperitoneal administration (Day 0, 7, and 15) and eye drop instillation (Day 8 and 15). On Day 20, mice were further sensitized with eye drops containing only SRW. On Day 27, the mice were treated topically with either 5 μL alcaftadine or vehicle at 1 and 2 hours prior to challenge. SRW was instilled topically to both eyes. The expression of these proteins in naive eyes were also monitored. Changes in the expression of the tight junction proteins ZO-1 and E-cadherin were observed 1-hour post conjunctival allergen challenge with SRW. The proteins were detected using FITC-conjugated monoclonal antibodies specific for ZO-1 and E-cadherin and were visualized by confocal microscopy (Ziess). […]

[3] = tested on: murine model of allergic conjunctivitis; experiment: Vascular leak (Evans Blue Dye Extravasation) in murine model of allergic conjunctivitis, early phase; assay type: in vivo, mice; details: alcaftadine 2.5 mg/ml, 5 μL topical at 1 and 2 hours pre-challenge; p<0.05
Method: (§1) Alcaftadine ophthalmic solution was evaluated to determine if topical treatment could reduce early phase and late phase allergic inflammation in a murine model of allergic conjunctivitis. Evans Blue Dye Leakage was used to assess the impact on vascular permeability during the early phase inflammatory response Conjunctiva was taken at 24 hours, stained, and assessed for presence of neutrophil and eosinophil infiltration to evaluate late phase anti-inflammatory activity.
(§2) All mice were sensitized with short ragweed (SRW) in aluminum hydroxide via intraperitoneal administration (Day 0, 7, and 14) and eye drop instillation (Day 8 and 15). On Day 20, mice were again sensitized with eye drops of SRW.
(§3) On Day 27, two topical administrations of the clinical dose of alcaftadine 2.5 mg/ml or vehicle were instilled at 1 and 2 hours pre-challenge. Alcaftadine and vehicle were administered topically at a 5 μL saturating dose as treatment arms based on a randomization code. […]
(§4) Vascular leak was determined by means of Evans Blue Dye Extravasation following allergen challenge for N=6 animals except the alcaftadine treatment arm, where N=4 animals were sacrificed and tested (two animals died during the procedure). […] The numbers of eosinophils and neutrophils were determined both by light microscopy of Giemsa or H&E stained sections or by immunohistochemistry using cell specific monoclonal antibodies. […]

[4] = tested on: murine model of allergic conjunctivitis; experiment: Eosinophil and neutrophil recruitment 24 hours post-CAC in murine model of allergic conjunctivitis, late phase; assay type: in vivo, mice; details: alcaftadine 2.5 mg/ml, 5 μL topical at 1 and 2 hours pre-challenge
Method: as §1, §2, §3, §4

[5] = Systemic (plasma) levels of alcaftadine in patients; assay type: in vivo, human; details: for Mean Cmax: plasma, 0.25% ophthalmic solution bilaterally
Method: Patients were bilaterally dosed with 0.25% ophthalmic solutions of alcaftadine for seven days. The plasma levels of those patients was assessed pre-dose, and 0.25, 0.5, 1, 1.5, 2, 3, 4, 6, 8, 12, and 18 hour post medication instillation on days one and seven. Plasma concentrations of Alcaftadine reached Cmax rapidly and declined to below the lower limit of quantification (0.01 ng/mL) by 3 hours post dosing.

[6] = Chemical stability of alcaftadine solution in non-sterilized or gamma irradiated LDPE bottles and glass vials (HPLC); assay type: physicochemical; details: Glass Vials; 5° C.; 6 days
[7] = Bunder Glas bottles, Ethylene Oxide, 5 days at 50° C.
[8] = Bunder Glas bottles, Ethylene Oxide, 14 days at 50° C.
[9] = Rexam bottles, Ethylene Oxide, 5 days at 50° C.
[10] = Rexam bottles, Ethylene Oxide, 14 days at 50° C.

Compound: CN1CCC(=C2c3ccccc3CCn3c(C=O)cnc32)CC1 [Alcaftadine, 6,11-dihydro-11-(1-methyl-4-piperidinylidene)-5H-imidazo[2,1-b][3]benzazepine-3-carboxaldehyde]
- preventing tearing [1]: as effective as the positive control and more effective than placebo
- preventing itching, redness, chemosis and lid edema ([1]; positive control ketotifen 0.05% and pheniramine 0.5%): more effective than the positive control
- N-oxide levels in ethylene oxide sterilized Bunder Glas bottles versus gamma irradiated bottles ([2]; 14 days of storage at 50° C. under ambient light conditions): significantly lower N-oxide levels
- Alcaftadine [2, 7]: 2.46 mg/mL
- N-Oxide [2, 7]: 0.052%
- Alcaftadine [2, 8]: 2.48 mg/mL
- N-Oxide [2, 8]: 0.074%
- Alcaftadine ([2]; Glass Vials, 5 days at 50° C.): 2.48 mg/mL
- N-Oxide ([2]; Glass Vials, 5 days at 50° C.): 0.022%
- Alcaftadine ([2]; Glass Vials, 14 days at 50° C.): 2.51 mg/mL
- N-Oxide ([2]; Glass Vials, 14 days at 50° C.): 0.028%
- Alcaftadine [2, 9]: 2.50 mg/mL
- N-Oxide [2, 9]: 0.018%
- Alcaftadine [2, 10]: 2.58 mg/mL
- N-Oxide [2, 10]: 0.025%
- E-cadherin staining, alcaftadine treatment versus naive (negative control) (E-cadherin; 5 μL topical at 1 and 2 hours prior to challenge, 1-hour post challenge): no or minimal difference
- induction of E-cadherin expression (E-cadherin; following specific conjunctival allergen challenge): inhibits the induction of E-cadherin expression
- vascular leak compared to vehicle [3]: successfully preventing vascular leakage; also recorded: did significantly inhibit vascular leak
- eosinophil or neutrophil recruitment in the late phase response [4]: did not prevent eosinophil or neutrophil recruitment
- eosinophil or neutrophil recruitment in the late phase response ([4]; listed as alcaftadine): does not appear to inhibit eosinophil or neutrophil recruitment
- maximum plasma concentrations ([5]; all subjects): less than 0.12 ng/mL
- Mean Cmax ([5]; Day 1): 0.051 ng/mL
- Mean Cmax ([5]; Day 7): 0.060 ng/mL
- time by which plasma concentrations declined to below the lower limit of quantification ([5]; post dosing, lower limit of quantification 0.01 ng/mL): ≤ 3 h
- Alcaftadine [6]: 2.52 mg/mL
- Oxide [6]: 0.008%
